{
  "source": "paper PMC10817945",
  "about": "“Design of a novel analogue peptide with potent antibiofilm activities against Staphylococcus aureus based upon a sapecin B-derived peptide” (Scientific Reports, 2024)",
  "key": {"S. aureus isolates [1]": {"system": "S. aureus isolates", "assay": "Kirby-Bauer disk diffusion antimicrobial susceptibility testing; also: key: R: Resistant; S: Susceptible", "assay_type": "cell-based, Staphylococcus aureus", "excerpt": "Three MRSA, two MSSA clinical isolates, and one S. aureus reference strain (ATCC 25923) were investigated in this study. […] The presence of the mecA/mecC gene was studied by PCR in all cefoxitin resistant isolates[42],[43]."}, "S. aureus isolates [2]": {"system": "S. aureus isolates", "assay": "microbe, parasite or virus in culture", "assay_type": "cell-based, Staphylococcus aureus", "procedure": "(§1) Minimum inhibitory concentrations (MIC) of KLK, mKLK, and vancomycin were determined using microdilution broth assay according to clinical and laboratory standards institute (CLSI) guidelines with some modifications. Briefly, overnight cultures were diluted in Muller-Hinton broth (MHB; Merck, Germany) to achieve a final density of 5 × 10^5 CFU/ml. A volume of 100 μl of bacterial suspension was added to wells of sterile 96-well plates containing 100 μl of two-fold peptide dilutions, ranging from 0.25 to 256 µg/ml. Vancomycin was used as a positive control in this assay. […] MBC was determined by removing samples from wells with no visible growth, serially diluting, and plating on Mueller Hinton (MH) agar plates for CFU counting."}, "S. aureus isolates [3]": {"system": "S. aureus isolates", "assay_type": "cell-based, Staphylococcus aureus", "procedure": "as §1"}, "[4]": {"system": "one MRSA and reference strain (ATCC25923)", "assay": "Time-kill kinetics assay", "experimental": "The peptide-free control was included for each strain. Following incubation at 37 °C for 0, 0.25, 0.5, 1, 2, 4, 5, and 24 h, each sample was serially diluted, plated onto Mueller–Hinton (MH) agar (Merck, Germany) plates and incubated at 37 °C. The viable plate count method was performed after incubation for 24 h and the counts were expressed as Log CFU/ml[44]."}, "[5]": {"system": "clinical Salmonella isolates", "set-up": "method as in PMID 34361810", "conditions": "cited from earlier work"}, "[6]": {"system": "drug resistant Mycobacterium abscessus isolates", "set-up": "method as in ref 33 (Sudadech et al.)", "conditions": "ref 33 (Sudadech et al.), cited from earlier work"}},
  "note": "Like-named read-outs stand apart in the source and are kept apart here.",
  "data": [
    {"compound": "CC(=O)NC[C@H]1CN(c2ccc(N3CCOCC3)c(F)c2)C(=O)O1", "note": "[LZD, Linezolide]", "values": [
      {"measurement": "Antimicrobial susceptibility testing", "setting": "S. aureus isolates [1]; MRSA-1", "result": "S"},
      {"measurement": "Antimicrobial susceptibility testing", "setting": "S. aureus isolates [1]; MRSA-2", "result": "S"},
      {"measurement": "Antimicrobial susceptibility testing", "setting": "S. aureus isolates [1]; MRSA-3", "result": "S"},
      {"measurement": "Antimicrobial susceptibility testing", "setting": "S. aureus isolates [1]; MSSA-1", "result": "S"},
      {"measurement": "Antimicrobial susceptibility testing", "setting": "S. aureus isolates [1]; MSSA-2", "result": "S"}
    ]},
    {"compound": "CO[C@H]1/C=C/O[C@@]2(C)Oc3c(C)c(O)c4c(O)c(c(/C=N/N5CCN(C)CC5)c(O)c4c3C2=O)NC(=O)/C(C)=C\\C=C\\[C@H](C)[C@H](O)[C@@H](C)[C@@H](O)[C@@H](C)[C@H](OC(C)=O)[C@@H]1C", "note": "[RP, Rifampicin]", "values": [
      {"measurement": "Antimicrobial susceptibility testing", "setting": "S. aureus isolates [1]; MRSA-1", "result": "S"},
      {"measurement": "Antimicrobial susceptibility testing", "setting": "S. aureus isolates [1]; MRSA-2", "result": "S"},
      {"measurement": "Antimicrobial susceptibility testing", "setting": "S. aureus isolates [1]; MRSA-3", "result": "S"},
      {"measurement": "Antimicrobial susceptibility testing", "setting": "S. aureus isolates [1]; MSSA-1", "result": "S"},
      {"measurement": "Antimicrobial susceptibility testing", "setting": "S. aureus isolates [1]; MSSA-2", "result": "S"}
    ]},
    {"compound": "CN(C)[C@@H]1C(O)=C(C(N)=O)C(=O)[C@@]2(O)C(O)=C3C(=O)c4c(O)cccc4[C@@](C)(O)[C@H]3C[C@@H]12", "note": "[TE, Tetracycline]", "values": [
      {"measurement": "Antimicrobial susceptibility testing", "setting": "S. aureus isolates [1]; MRSA-1", "result": "R"},
      {"measurement": "Antimicrobial susceptibility testing", "setting": "S. aureus isolates [1]; MRSA-2", "result": "R"},
      {"measurement": "Antimicrobial susceptibility testing", "setting": "S. aureus isolates [1]; MRSA-3", "result": "R"},
      {"measurement": "Antimicrobial susceptibility testing", "setting": "S. aureus isolates [1]; MSSA-1", "result": "R"},
      {"measurement": "Antimicrobial susceptibility testing", "setting": "S. aureus isolates [1]; MSSA-2", "result": "R"}
    ]},
    {"compound": "CN[C@H](CC(C)C)C(=O)N[C@H]1C(=O)N[C@@H](CC(N)=O)C(=O)N[C@H]2C(=O)N[C@H]3C(=O)N[C@H](C(=O)N[C@H](C(=O)O)c4cc(O)cc(O)c4-c4cc3ccc4O)[C@H](O)c3ccc(c(Cl)c3)Oc3cc2cc(c3O[C@@H]2O[C@H](CO)[C@@H](O)[C@H](O)[C@H]2O[C@H]2C[C@](C)(N)[C@H](O)[C@H](C)O2)Oc2ccc(cc2Cl)[C@H]1O", "note": "[vancomycin, Vancomycin]", "values": [
      {"measurement": "MIC", "setting": "S. aureus isolates [2]; ATCC25923", "result": 0.25, "unit": "µg/mL"},
      {"measurement": "MIC", "setting": "S. aureus isolates [2]; MRSA-1", "result": 0.25, "unit": "µg/mL"},
      {"measurement": "MIC", "setting": "S. aureus isolates [2]; MRSA-2", "result": 0.5, "unit": "µg/mL"},
      {"measurement": "MIC", "setting": "S. aureus isolates [2]; MRSA-3", "result": 0.5, "unit": "µg/mL"},
      {"measurement": "MIC", "setting": "S. aureus isolates [2]; MSSA-1", "result": 0.25, "unit": "µg/mL"},
      {"measurement": "MIC", "setting": "S. aureus isolates [2]; MSSA-2", "result": 0.25, "unit": "µg/mL"},
      {"measurement": "MIC", "setting": "S. aureus isolates [2]; Staphylococcus aureus", "result": "0.25 to 0.5", "unit": "µg/mL"},
      {"measurement": "MBC", "setting": "S. aureus isolates [3]; ATCC25923", "result": 0.25, "unit": "µg/mL"},
      {"measurement": "MBC", "setting": "S. aureus isolates [3]; MRSA-1", "result": 0.5, "unit": "µg/mL"},
      {"measurement": "MBC", "setting": "S. aureus isolates [3]; MRSA-2", "result": 0.5, "unit": "µg/mL"},
      {"measurement": "MBC", "setting": "S. aureus isolates [3]; MRSA-3", "result": 0.5, "unit": "µg/mL"},
      {"measurement": "MBC", "setting": "S. aureus isolates [3]; MSSA-1", "result": 0.25, "unit": "µg/mL"},
      {"measurement": "MBC", "setting": "S. aureus isolates [3]; MSSA-2", "result": 0.25, "unit": "µg/mL"},
      {"measurement": "Antimicrobial susceptibility testing", "setting": "S. aureus isolates [1]; MRSA-1", "result": "S"},
      {"measurement": "Antimicrobial susceptibility testing", "setting": "S. aureus isolates [1]; MRSA-2", "result": "S"},
      {"measurement": "Antimicrobial susceptibility testing", "setting": "S. aureus isolates [1]; MRSA-3", "result": "S"},
      {"measurement": "Antimicrobial susceptibility testing", "setting": "S. aureus isolates [1]; MSSA-1", "result": "S"},
      {"measurement": "Antimicrobial susceptibility testing", "setting": "S. aureus isolates [1]; MSSA-2", "result": "S"},
      {"measurement": "time after which no regrowth was observed", "setting": "[4]; ATCC 25923, 1 × MIC (0.25 μg/ml)", "result": 24, "unit": "h"},
      {"measurement": "reduction in viable cell count", "setting": "[4]; ATCC 25923, 1 × MIC, during 4 h", "result": "~ 3 log"},
      {"measurement": "time after which no regrowth was observed", "setting": "[4]; ATCC 25923, 2 × MIC", "result": 24, "unit": "h"},
      {"measurement": "reduction in viable cell count", "setting": "[4]; ATCC 25923, 2 × MIC, within 4 h", "result": "~ 4 log"},
      {"measurement": "time after which no regrowth was observed", "setting": "[4]; MRSA, 1 × MIC", "result": 24, "unit": "h"},
      {"measurement": "reduction in viable cell count", "setting": "[4]; MRSA, 1 × MIC (0.5 μg/ml), during 5 h", "result": "~ 2 log"},
      {"measurement": "time after which no growth was observed", "setting": "[4]; MRSA, 2 × MIC (1 μg/ml)", "result": 24, "unit": "h"},
      {"measurement": "reduction in viable cell count", "setting": "[4]; MRSA, 2 × MIC (1 μg/ml), within 4 h", "result": "~ 2 log"},
      {"measurement": "reduction in viable cell count", "setting": "[4]; MRSA, 2 × MIC (1 μg/ml), within 5 h", "result": "~3", "unit": "log"}
    ]},
    {"compound": "Amoxicillin/clavulanic acid [AMC]", "values": [
      {"measurement": "Antimicrobial susceptibility testing", "setting": "S. aureus isolates [1]; MRSA-1", "result": "R"},
      {"measurement": "Antimicrobial susceptibility testing", "setting": "S. aureus isolates [1]; MRSA-2", "result": "R"},
      {"measurement": "Antimicrobial susceptibility testing", "setting": "S. aureus isolates [1]; MRSA-3", "result": "R"},
      {"measurement": "Antimicrobial susceptibility testing", "setting": "S. aureus isolates [1]; MSSA-1", "result": "S"},
      {"measurement": "Antimicrobial susceptibility testing", "setting": "S. aureus isolates [1]; MSSA-2", "result": "S"}
    ]},
    {"compound": "KLKLLLLLKL [KLK1, variant of KLK]", "values": [
      {"measurement": "MIC", "setting": "[5]", "result": "> 256", "unit": "µM"},
      {"measurement": "killing", "setting": "[6]; against 62.5% of the tested isolates within 24 h", "result": "~ 99%"},
      {"measurement": "MIC", "setting": "[6]; drug resistant Mycobacterium abscessus isolates", "result": "< 50", "unit": "µg/mL"}
    ]},
    {"compound": "Trimethoprim/sulphamethoxazole [SXT]", "values": [
      {"measurement": "Antimicrobial susceptibility testing", "setting": "S. aureus isolates [1]; MRSA-1", "result": "S"},
      {"measurement": "Antimicrobial susceptibility testing", "setting": "S. aureus isolates [1]; MRSA-2", "result": "S"},
      {"measurement": "Antimicrobial susceptibility testing", "setting": "S. aureus isolates [1]; MRSA-3", "result": "R"},
      {"measurement": "Antimicrobial susceptibility testing", "setting": "S. aureus isolates [1]; MSSA-1", "result": "S"},
      {"measurement": "Antimicrobial susceptibility testing", "setting": "S. aureus isolates [1]; MSSA-2", "result": "S"}
    ]}
  ]
}
